In patent US20090263472A1, “ENDOTHELIN RECEPTOR ANTAGONIST DERIVATIVES” (NICOX S.A., priority 2006, published 2009):

How the values were obtained:
[1] = test system: isolated rabbit thoracic aorta preparations; assay: Studies on vascular tone: vasorelaxation of noradrenaline-precontracted aortic rings; assay type: cell-based; settings: for relaxation of precontracted aortic rings (in words): cumulative concentration-response curve, noradrenaline 1 μM precontraction
[2] = test system: spontaneously hypertensive rats (SHR); assay: Antihypertensive activity in vivo, tail-cuff systolic blood pressure; parameters: species or system rat; settings: for Δ SBP (Systolic Blood Pressure) 1 hr / Δ SBP (Systolic Blood Pressure) 3 hrs / Δ SBP (Systolic Blood Pressure) 6 hrs: p.o., delta vs own baseline, bosentan 100 mpk, compound of EX. 1 equimolar dose; for Δ SBP (Systolic Blood Pressure) 1 hr: 1 hr after treatment; for Δ SBP (Systolic Blood Pressure) 3 hrs: 3 hrs after treatment; for Δ SBP (Systolic Blood Pressure) 6 hrs: 6 hrs after treatment
Method: Ten days prior to the beginning of the experiment, spontaneously hypertensive rats (SHR) are trained daily for the measurement of blood pressure by the tail-cuff method ([…] et Al.; Am. J. Physiol. Heart Circ. Physiol 286: […]-[…], 2004) using model BP-2000 Blood Pressure Analysis System from U.Basile (Comerio, VA Italy). Each animal is placed in individuals cages into a warming cupboard (37° C.) for 15 minutes. […] Average of blood pressure values from individual rats are evaluated from 3/5 different consecutive measurements. […] The data are processed both as the absolute value or as a delta between the absolute value and its own baseline.

| Structure (SMILES) | EC50 ([1]; concentration producing 50% of maximum relaxation, aortic rings contracted with noradrenaline 1 μM, functional endothelium, read-out: EC50 (μM) ± sem) | relaxation of precontracted aortic rings (in words) [1] | reduction in blood pressure (in words) ([2]; oral administration) | Δ SBP (Systolic Blood Pressure) 1 hr [2] | Δ SBP (Systolic Blood Pressure) 3 hrs [2] | Δ SBP (Systolic Blood Pressure) 6 hrs [2] | EC50 (μM) ± sem ([1]; concentration producing 50% of maximum relaxation, aortic rings contracted with noradrenaline 1 μM, functional endothelium) |
| --- | --- | --- | --- | --- | --- | --- | --- |
| COc1ccccc1Oc1c(NS(=O)(=O)c2ccc(C(C)(C)C)cc2)nc(-c2ncccn2)nc1OCCOC(=O)CCCO[N+](=O)[O-] [Compound of EX. 1] | 33.9 ± 2.5 µM | able to induce relaxation in a concentration-dependent manner | able to induce a clear reduction in blood pressure | −8 mmHg | −18 mmHg | −6 mmHg | – |
| COc1ccccc1Oc1c(NS(=O)(=O)c2ccc(C(C)(C)C)cc2)nc(-c2ncccn2)nc1OCCO [Bosentan, reference compound] | – | did not produce relaxation at any of the concentration tested | – | 0 mmHg | 6 mmHg | −1 mmHg | no effect |
